Test systems include DMS 273 small cell lung; DLD-1 colon; LXFL 529 NSCLC; RXF-631 renal; DMS 114 small cell lung; SNB-78 CNS; MDA-N.
Experiment in all cases: NCI-60 cell line screen, 48 h

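In this assay, cells in 96-well plates receive the compound at five concentrations for 48 hours. Endpoints are linearly interpolated between the surrounding concentrations. GI50 = concentration required for 50% inhibition of growth. TGI: total growth inhibition.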 Where only a bound is given, the exact number is not on record here.

On to `COC(=O)C(/C(=N\NC(N)=S)C(=O)Nc1ccccc1[N+](=O)[O-])c1cnc2ccccc2n1` (stereo not given), for which the TGI in the assay on DMS 273 small cell lung, with DLD-1 colon, in the assay with LXFL 529 NSCLC, in the assay with RXF-631 renal, with DMS 114 small cell lung and with SNB-78 CNS was above 100 µM each time.

As for `CCCCCCCCCCCCCB(O)O`, the TGI in the assay on DMS 273 small cell lung, in the assay with DLD-1 colon, in the assay on LXFL 529 NSCLC, in the assay on DMS 114 small cell lung and with SNB-78 CNS was above 100 µM throughout.

Turning to `O=C1C2C3C=CC(C2C(=O)N1CN1CCSCC1)C1C2C(=O)N(CN4CCSCC4)C(=O)C2C31` (stereo not given), the TGI in the assay on DMS 273 small cell lung is above 61.4 µM; with DLD-1 colon, above 79.3 µM; in the assay with LXFL 529 NSCLC it was above 100 µM; in the assay on RXF-631 renal, above 100 µM; in the assay on DMS 114 small cell lung, above 56.1 µM; in the assay on SNB-78 CNS, above 100 µM.

Take `c1ccc2c(NCCCCCCNc3cccc4ccccc34)cccc2c1`: the TGI with DMS 273 small cell lung, in the assay with DLD-1 colon, in the assay on LXFL 529 NSCLC, in the assay on RXF-631 renal, with DMS 114 small cell lung and in the assay on SNB-78 CNS was above 100 µM each time.

Turning to `COC(=O)C(=O)C(C(=O)C(=O)Nc1cc(C)ccc1C)c1nc2ccc(C(=O)c3ccccc3)cc2[nH]c1=O` (stereo not given), the TGI with DMS 273 small cell lung, in the assay on LXFL 529 NSCLC, in the assay on RXF-631 renal, with DMS 114 small cell lung and in the assay on SNB-78 CNS was above 100 µM each time.

`CCCCN(CCCC)CCCn1cnc2ncccc2c1=O`: the TGI in the assay with DMS 273 small cell lung, in the assay on DLD-1 colon, in the assay with LXFL 529 NSCLC, in the assay with DMS 114 small cell lung and in the assay with SNB-78 CNS was above 100 µM throughout.

With `Cc1ccc2nc(NC(=O)/C(=N\NC(=S)NN)C3C(=O)NC(=S)NC3=O)sc2c1`, the TGI with DMS 273 small cell lung, with DLD-1 colon, in the assay on LXFL 529 NSCLC, in the assay with RXF-631 renal and in the assay on SNB-78 CNS was above 100 µM in each case.

Take `Cn1cnc([N+](=O)[O-])c1Sc1nccc(=O)[nH]1`: the TGI in the assay with DMS 273 small cell lung, in the assay with DLD-1 colon, in the assay with LXFL 529 NSCLC, in the assay on RXF-631 renal, with DMS 114 small cell lung and in the assay on SNB-78 CNS was above 100 µM each time.

Regarding `CCOC(=O)C1(Br)S(=O)(=O)OCCOS1(=O)=O`, the TGI in the assay on DMS 273 small cell lung, in the assay with DLD-1 colon, with DMS 114 small cell lung and with SNB-78 CNS was above 100 µM throughout.

Turning to `C/C(=N\NC(=O)CC(=O)N(C(=O)c1ccc(Cl)cc1)c1ccc(C)cc1)c1ccccc1O`, the TGI in the assay on DMS 273 small cell lung, with DLD-1 colon, in the assay with LXFL 529 NSCLC, in the assay with RXF-631 renal, with DMS 114 small cell lung and in the assay on SNB-78 CNS was above 100 µM throughout.

With `CC(C)C1N2CCCCC2[C@@H]2c3[nH]c4ccccc4c3CCN12` (stereo not given in full), the TGI with DMS 273 small cell lung, with DLD-1 colon, in the assay on LXFL 529 NSCLC, in the assay on DMS 114 small cell lung and in the assay on SNB-78 CNS was above 100 µM each time.

As for `O=c1c2c(c1=O)-c1ccccc1CN2`, the TGI in the assay on DMS 273 small cell lung, in the assay on DLD-1 colon, in the assay on LXFL 529 NSCLC, in the assay on DMS 114 small cell lung and in the assay on SNB-78 CNS was above 100 µM each time.

As to `CCOC(=O)C(C(O)c1ccc([N+](=O)[O-])cc1)P(=O)(OCC)OCC` (stereo not given), the TGI in the assay with DMS 273 small cell lung, in the assay on DLD-1 colon, in the assay on LXFL 529 NSCLC and with RXF-631 renal was above 100 µM throughout.

On to `CC(=O)O[C@H]1CC2C=CC3C(CCC31)O2` (stereo not given in full), for which the TGI in the assay with DMS 273 small cell lung, with DLD-1 colon, in the assay on LXFL 529 NSCLC, in the assay on DMS 114 small cell lung and in the assay on SNB-78 CNS was above 100 µM throughout.

`CCN(CC)CCn1c2ccccc2c(=O)c2c(OC)ccc(OC)c21`: the TGI in the assay with DMS 273 small cell lung, in the assay with LXFL 529 NSCLC and in the assay with SNB-78 CNS was above 100 µM in each case.

As to `COC(=O)/C(=N\NC(N)=O)C(C(=O)C=C(C)C)C(=O)C(=O)Nc1ccc(Cl)c(Cl)c1` (stereo not given), the TGI in the assay on DMS 273 small cell lung, with DLD-1 colon, in the assay on LXFL 529 NSCLC, in the assay on RXF-631 renal, in the assay on DMS 114 small cell lung and in the assay with SNB-78 CNS was above 100 µM in each case.

Take `CCOP1(=O)C=C(C)C(=C(Cl)Cl)C(C)=C1` (stereo not given): the TGI in the assay with DLD-1 colon amounted to 78.5 µM; in the assay with LXFL 529 NSCLC, 24.1 µM; in the assay with RXF-631 renal, 64.5 µM. Also, the GI50 is 5.53 µM in the assay with LXFL 529 NSCLC and 20.4 µM with RXF-631 renal.

With `COC[C@H](C)N=CN1CCc2ccccc2C1(Cc1ccccc1)Cc1ccccc1`, the TGI was found to be 29.8 µM in the assay with DLD-1 colon, 25.3 µM in the assay with LXFL 529 NSCLC and 34.9 µM in the assay on RXF-631 renal.

For the compound `CCN(CC)CCNc1ccc2nc(C)n3c4ccc(O)cc4c(=O)c1c23`, the TGI in the assay with DMS 273 small cell lung stood at 3.15 µM; in the assay on DLD-1 colon it was 10.5 µM; with LXFL 529 NSCLC it was 16.5 µM; with RXF-631 renal, 7.51 µM; in the assay with DMS 114 small cell lung it was 10.4 µM.

`[O-]c1c2c(nn1-c1ccc(Cl)cc1)c1ccccc1c[n+]2Cc1ccccc1`: the TGI with DMS 273 small cell lung, in the assay with DLD-1 colon, with LXFL 529 NSCLC, with DMS 114 small cell lung and with SNB-78 CNS was above 100 µM each time.

Take `COC(=O)C1C=CCON2CCc3c(n(S(=O)(=O)c4ccccc4)c4ccccc34)C12` (stereo not given): the TGI in the assay with DMS 273 small cell lung was above 66.2 µM; in the assay with DLD-1 colon, above 22.8 µM; in the assay with LXFL 529 NSCLC, above 100 µM; in the assay on DMS 114 small cell lung it was above 87.7 µM; with SNB-78 CNS, above 100 µM.

On to `CC1CC[P+](c2ccccc2)(c2ccccc2)CC1`, for which the TGI in the assay with DMS 273 small cell lung, with DLD-1 colon, in the assay on LXFL 529 NSCLC, in the assay on DMS 114 small cell lung and in the assay with SNB-78 CNS was above 100 µM throughout.

Regarding `O=C1C=CC2(C=C1)C[C@H](NC(=O)OCc1ccccc1)C(=O)O2`, the TGI in the assay on DMS 273 small cell lung is 35 µM; with MDA-N, 28.9 µM; in the assay on DLD-1 colon it was 14.1 µM; with LXFL 529 NSCLC, 24.7 µM; in the assay on RXF-631 renal, 40.8 µM; in the assay on DMS 114 small cell lung it was 47.2 µM. Also, in the assay on SNB-78 CNS, the TGI is 67.2 µM.

Consider `CCc1cccc(C)c1NC(=S)NC(=O)c1ccccc1C(=O)NC(=S)Nc1c(C)cccc1CC`, for which the TGI is above 100 µM in the assay with DMS 273 small cell lung; above 100 µM with DLD-1 colon; above 100 µM in the assay with LXFL 529 NSCLC; 70.8 µM with DMS 114 small cell lung; above 100 µM in the assay on SNB-78 CNS.

With `CCOC(=O)C(=O)Nc1ccccc1C(C)C`, the TGI in the assay on DMS 273 small cell lung, with DLD-1 colon, in the assay on LXFL 529 NSCLC, with RXF-631 renal and in the assay on DMS 114 small cell lung was above 100 µM in each case.

On to `C=CCN(N=O)C(=O)NCCCCC(NC(C)=O)C(=O)NCc1ccccc1` (stereo not given), for which the TGI in the assay with DMS 273 small cell lung, in the assay on LXFL 529 NSCLC, with RXF-631 renal and with DMS 114 small cell lung was above 100 µM throughout.

For `C=C1Cc2cc(OC)c(OC)c(OC)c2-c2ccc(SC)c(=O)cc21`, the TGI is 3.7 µM in the assay on DLD-1 colon, 1.81 µM in the assay with LXFL 529 NSCLC, below 0.0279 µM in the assay on DMS 114 small cell lung and 49.4 µM with SNB-78 CNS.

For `CCN=C(C#N)NCC`, the TGI with DMS 273 small cell lung is above 100 µM; in the assay with DLD-1 colon it was above 100 µM; in the assay with LXFL 529 NSCLC, above 100 µM; in the assay on DMS 114 small cell lung, 92 µM; with SNB-78 CNS it was above 100 µM.

The values are drawn from PubChem BioAssay (NCI).
